For 2 compounds, Kd results are on record in publication PMC6532911, “Oryza sativa Brittle Culm 1-like 6 modulates β-glucan levels in the endosperm cell wall” (PLoS ONE, 2019).

The Kd is the free concentration of one partner at which half of the binding sites on the other are occupied at equilibrium, for simple one-to-one binding. A lower Kd goes with tighter binding.

The assay addresses T1, CBM-GST (CBM of OsBC1L6) (Oryza sativa, UniProt Q6Z4G8).
T1 construct: gene BC1L6; wheat germ cell-free expression; 48 kDa by SDS-PAGE
T1 sequence (Q6Z4G8 31-191): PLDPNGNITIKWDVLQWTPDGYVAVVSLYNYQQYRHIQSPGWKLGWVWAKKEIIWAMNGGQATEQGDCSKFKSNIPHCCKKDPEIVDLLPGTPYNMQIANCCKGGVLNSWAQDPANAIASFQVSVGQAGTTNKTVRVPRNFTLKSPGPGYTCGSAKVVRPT
Nature of the assay: surface plasmon resonance (Biacore T200). Type of assay: binding. Conditions: CBM-GST captured by anti-GST on CM5 chip; HBS-EP pH 7.4, 25°C.

In turn, `OC1OC[C@@H](O[C@@H]2OC[C@@H](O[C@@H]3OC[C@@H](O[C@@H]4OC[C@@H](O[C@@H]5OC[C@@H](O[C@@H]6OC[C@@H](O)[C@H](O)[C@H]6O)[C@H](O)[C@H]5O)[C@H](O)[C@H]4O)[C@H](O)[C@H]3O)[C@H](O)[C@H]2O)[C@H](O)[C@H]1O` (some centres unmarked) [XXXXXX, xylohexaose] yielded a Kd of 760 µM. As for `OC[C@H]1O[C@@H](O[C@H]2[C@H](O)[C@@H](O)[C@H](O[C@H]3[C@H](O)[C@@H](O)[C@H](O[C@H]4[C@H](O)[C@@H](O)[C@H](O[C@H]5[C@H](O)[C@@H](O)[C@H](O[C@H]6[C@H](O)[C@@H](O)C(O)O[C@@H]6CO)O[C@@H]5CO)O[C@@H]4CO)O[C@@H]3CO)O[C@@H]2CO)[C@H](O)[C@@H](O)[C@@H]1O` (some centres unmarked) [GGGGGG, cellohexaose], the figure is 852 µM.
